Target: recombinant human LRRK2 (catalytic domain only [amino acids 970-2527], GST-tagged) (Homo sapiens (Human), UniProt Q5S007)
Test: LRRK2 Enzymatic Assay
Format: biochemical
Conditions: LRRKtide substrate, [32P]-ATP
Summary of the method: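 Radiometric P81 filter-binding read-out of [32P]-ATP transfer to LRRKtide (20 μM) by 30 nM GST-LRRK2 970-2527, 2 h at room temperature after 20 min compound preincubation (10 μM–0.5 nM, 1% DMSO). IC50 derived from % remaining activity versus DMSO.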

Chain of recombinant human LRRK2 (catalytic domain only [amino acids 970-2527], GST-tagged) (Q5S007 970-2527): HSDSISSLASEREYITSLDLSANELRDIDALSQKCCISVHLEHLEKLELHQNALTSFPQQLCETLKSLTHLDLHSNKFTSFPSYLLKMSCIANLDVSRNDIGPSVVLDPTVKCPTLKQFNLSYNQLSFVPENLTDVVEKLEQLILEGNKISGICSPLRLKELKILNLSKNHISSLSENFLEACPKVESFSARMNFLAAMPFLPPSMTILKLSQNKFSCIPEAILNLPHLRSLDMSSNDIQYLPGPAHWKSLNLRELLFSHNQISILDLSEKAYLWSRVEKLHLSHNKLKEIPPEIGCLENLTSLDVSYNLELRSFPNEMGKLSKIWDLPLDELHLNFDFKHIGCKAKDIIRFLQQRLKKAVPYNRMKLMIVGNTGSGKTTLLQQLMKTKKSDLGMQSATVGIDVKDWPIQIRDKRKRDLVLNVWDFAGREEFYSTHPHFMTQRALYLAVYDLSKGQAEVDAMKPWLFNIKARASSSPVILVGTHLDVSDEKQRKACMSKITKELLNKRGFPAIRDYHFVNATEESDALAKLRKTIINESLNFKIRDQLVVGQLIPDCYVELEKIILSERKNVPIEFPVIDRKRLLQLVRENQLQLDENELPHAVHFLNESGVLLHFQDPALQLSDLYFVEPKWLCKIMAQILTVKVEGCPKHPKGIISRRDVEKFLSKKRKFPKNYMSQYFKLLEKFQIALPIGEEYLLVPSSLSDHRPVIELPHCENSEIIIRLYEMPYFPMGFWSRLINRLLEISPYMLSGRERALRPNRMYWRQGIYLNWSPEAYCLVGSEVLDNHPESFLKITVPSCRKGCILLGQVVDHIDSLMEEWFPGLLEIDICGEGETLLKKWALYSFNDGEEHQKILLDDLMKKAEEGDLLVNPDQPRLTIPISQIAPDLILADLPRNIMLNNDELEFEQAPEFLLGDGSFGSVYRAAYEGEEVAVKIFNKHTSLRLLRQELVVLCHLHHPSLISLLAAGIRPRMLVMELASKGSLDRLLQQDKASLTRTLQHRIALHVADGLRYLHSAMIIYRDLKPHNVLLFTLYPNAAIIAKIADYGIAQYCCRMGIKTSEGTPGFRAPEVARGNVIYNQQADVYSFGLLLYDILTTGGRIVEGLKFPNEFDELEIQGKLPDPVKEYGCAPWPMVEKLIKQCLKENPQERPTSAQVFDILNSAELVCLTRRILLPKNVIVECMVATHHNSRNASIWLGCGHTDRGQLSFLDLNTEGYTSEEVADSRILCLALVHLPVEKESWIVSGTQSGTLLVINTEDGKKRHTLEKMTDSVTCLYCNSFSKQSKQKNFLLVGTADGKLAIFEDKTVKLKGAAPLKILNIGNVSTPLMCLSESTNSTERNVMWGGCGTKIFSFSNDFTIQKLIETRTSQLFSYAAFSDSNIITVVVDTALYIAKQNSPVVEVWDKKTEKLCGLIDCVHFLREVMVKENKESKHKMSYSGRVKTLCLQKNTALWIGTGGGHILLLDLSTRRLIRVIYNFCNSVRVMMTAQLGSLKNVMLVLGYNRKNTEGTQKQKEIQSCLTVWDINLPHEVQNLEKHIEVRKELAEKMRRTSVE

Row | SMILES | IC50 [nM]
1 | Cc1nn(C(C)(C)C#N)cc1Nc1ncc(Cl)c(OC[C@H]2CC[C@H](C(C)(C)O)CC2)n1 [Example 138, 2-(4-((5-chloro-4-(((1R,4R)-4-(2-hydroxypropan-2-yl)cyclohexyl)methoxy)pyrimidin-2-yl)amino)-3-methyl-1H-pyrazol-1-yl)-2-methylpropanenitrile] | < 50
2 | OCC1CCC(COc2ccnc(Nc3ccc(N4CCOCC4)cc3)n2)CC1 (stereo not shown) [Example 139, (4-(((2-((4-morpholinophenyl)amino)pyrimidin-4-yl)oxy)methyl)cyclohexyl)methanol22] | 50 to 200
3 | OC12CCC(COc3ccnc(Nc4ccc(N5CCOCC5)cc4)n3)(CC1)CC2 [Example 140, 4-(((2-((4-morpholinophenyl)amino)pyrimidin-4-yl)oxy)methyl)bicyclo[2.2.2]octan-1-ol] | > 400
4 | C[C@@H]1CN(c2ccc(Nc3nccc(OCC4CCC(CO)CC4)n3)cc2)C[C@H](C)O1 (stereo partly drawn) [Example 141, (4-(((2-((4-((2R,6S)-2,6-dimethylmorpholino)phenyl)amino)pyrimidin-4-yl)oxy)methyl)cyclohexyl)methanol] | 50 to 200
5 | C[C@@H]1CN(c2ccc(Nc3nccc(OCC45CCC(O)(CC4)CC5)n3)cc2)C[C@H](C)O1 [Example 142, 4-(((2-((4-((2S,6R)-2,6-dimethylmorpholino)phenyl)amino)pyrimidin-4-yl)oxy)methyl)bicyclo[2.2.2]octan-1-ol] | > 400
6 | C[C@@H]1CN(c2ccc(Nc3ncc(F)c(OCC45CCC(O)(CC4)CC5)n3)cc2)C[C@H](C)O1 [Example 143, 4-(((2-((4-((2S,6R)-2,6-dimethylmorpholino)phenyl)amino)-5-fluoropyrimidin-4-yl)oxy)methyl)bicyclo[2.2.2]octan-1-ol] | 50 to 200
7 | CC(C)(O)[C@H]1CC[C@H](COc2nc(Nc3ccc(N4CCOCC4)cc3)ncc2F)CC1 [Example 144, 2-((1R,4R)-4-(((5-fluoro-2-((4-morpholinophenyl)amino)pyrimidin-4-yl)oxy)methyl)cyclohexyl)propan-2-ol] | 50 to 200
8 | Cc1nn(C(C)(C)C#N)cc1Nc1ncc(Cl)c(OCC2CCC(NC3CC(F)(F)C3)CC2)n1 (stereo not shown) [Example 145, 2-(4-((5-chloro-4-((4-((3,3-difluorocyclobutyl)amino)cyclohexyl)methoxy)pyrimidin-2-yl)amino)-3-methyl-1H-pyrazol-1-yl)-2-methylpropanenitrile] | < 50
9 | Clc1cnc(Nc2ccc(N3CCOCC3)cc2)nc1OCC1CCCCC1 [Example 147, 5-chloro-4-(cyclohexylmethoxy)-N-(4-morpholinophenyl)pyrimidin-2-amine] | < 50
10 | Clc1cnc(Nc2ccc(N3CCOCC3)cc2)nc1OCC1CCOCC1 [Example 148, 5-chloro-N-(4-morpholinophenyl)-4-((tetrahydro-2H-pyran-4-yl)methoxy)pyrimidin-2-amine] | < 50
11 | Cc1nn(C(C)(C)C#N)cc1Nc1ncc(Cl)c(OCC2CC(C)OC(C)C2)n1 (stereo not shown) [Example 149, 2-(4-((5-chloro-4-((2,6-dimethyltetrahydro-2H-pyran-4-yl)methoxy)pyrimidin-2-yl)amino)-3-methyl-1H-pyrazol-1-yl)-2-methylpropanenitrile] | < 50
12 | Cc1nn(C2CC(C#N)C2)cc1Nc1ncc(Cl)c(OCC2CCOC(C)(C)C2)n1 (stereo not shown) [Example 150, 3-(4-((5-chloro-4-((2,2-dimethyltetrahydro-2H-pyran-4-yl)methoxy)pyrimidin-2-yl)amino)-3-methyl-1H-pyrazol-1-yl)cyclobutane-1-carbonitrile] | 50 to 200
13 | Cc1nn(C2CC(C#N)C2)cc1Nc1ncc(Cl)c(OCC2CC3(COC3)C2)n1 (stereo not shown) [Example 151, 3-(4-((4-((2-oxaspiro[3.3]heptan-6-yl)methoxy)-5-chloropyrimidin-2-yl)amino)-3-methyl-1H-pyrazol-1-yl)cyclobutane-1-carbonitrile] | < 50
14 | COc1cnc(Nc2ccc(N3CCOCC3)cc2)nc1OCC1CCCCC1 [Example 152, 4-(cyclohexylmethoxy)-5-methoxy-N-(4-morpholinophenyl)pyrimidin-2-amine] | < 50
15 | FC1(F)CCC(COc2nc(Nc3ccc(N4CCOCC4)cc3)ncc2Cl)CC1 [Example 153, 5-chloro-4-((4,4-difluorocyclohexyl)methoxy)-N-(4-morpholinophenyl)pyrimidin-2-amine] | 50 to 200
16 | Cc1nn(C(C)(C)C#N)cc1Nc1ncc(Cl)c(OCC2CC(F)(F)C2)n1 [Example 154, 2-(4-((5-chloro-4-((3,3-difluorocyclobutyl)methoxy)pyrimidin-2-yl)amino)-3-methyl-1H-pyrazol-1-yl)-2-methylpropanenitrile] | < 50
17 | Cc1nn(C(C)(C)C#N)cc1Nc1ncc(C#N)c(OCC2CC(F)(F)C2)n1 [Example 155, 2-((1-(2-cyanopropan-2-yl)-3-methyl-1H-pyrazol-4-yl)amino)-4-((3,3-difluorocyclobutyl)methoxy)pyrimidine-5-carbonitrile] | 50 to 200

Row | SMILES | IC50 [nM]
18 | COc1cnc(Nc2ccc(N3CCOCC3)cc2)nc1OCC1CCC(F)(F)CC1 [Example 156, 4-((4,4-difluorocyclohexyl)methoxy)-5-methoxy-N-(4-morpholinophenyl)pyrimidin-2-amine] | 50 to 200
19 | Cc1nn(C(C)(C)C#N)cc1Nc1ncc(Cl)c(OCC2CCC(C(F)(F)F)CC2)n1 (stereo not shown) [Example 157, 2-(4-((5-chloro-4-((4-(trifluoromethyl)cyclohexyl)methoxy)pyrimidin-2-yl)amino)-3-methyl-1H-pyrazol-1-yl)-2-methylpropanenitrile] | 50 to 200
20 | Cc1nn(C(C)(C)C#N)cc1Nc1ncc(Cl)c(OCC2COC2)n1 [Example 158, 2-(4-((5-chloro-4-(oxetan-3-ylmethoxy)pyrimidin-2-yl)amino)-3-methyl-1H-pyrazol-1-yl)-2-methylpropanenitrile] | 50 to 200
21 | Cc1c(Nc2ncc(Cl)c(OCC3CC(F)(F)C3)n2)cnn1C1CC(C#N)C1 (stereo not shown) [Example 159, 3-(4-((5-chloro-4-((3,3-difluorocyclobutyl)methoxy)pyrimidin-2-yl)amino)-5-methyl-1H-pyrazol-1-yl)cyclobutane-1-carbonitrile] | < 50
22 | Cc1nn(C2CC(C#N)C2)cc1Nc1ncc(Cl)c(OCC2CC(F)(F)C2)n1 (stereo not shown) [Example 160, 3-(4-((5-chloro-4-((3,3-difluorocyclobutyl)methoxy)pyrimidin-2-yl)amino)-3-methyl-1H-pyrazol-1-yl)cyclobutane-1-carbonitrile] | 50 to 200
23 | COC1CCC(COc2nc(Nc3cn(C(C)(C)C#N)nc3C)ncc2Cl)CC1 (stereo not shown) [Example 161, 2-(4-((5-chloro-4-((4-methoxycyclohexyl)methoxy)pyrimidin-2-yl)amino)-3-methyl-1H-pyrazol-1-yl)-2-methylpropanenitrile] | < 50
24 | COC1CCC(COc2ccnc(Nc3cn(C(C)(C)C#N)nc3C)n2)CC1 (stereo not shown) [Example 162, 2-(4-((4-((4-methoxycyclohexyl)methoxy)pyrimidin-2-yl)amino)-3-methyl-1H-pyrazol-1-yl)-2-methylpropanenitrile] | 200 to 400
25 | Fc1cnc(Nc2ccc(N3C4CCC3COC4)cc2)nc1OCC1CCNCC1(F)F (stereo not shown) [Example 163, N-(4-(3-oxa-8-azabicyclo[3.2.1]octan-8-yl)phenyl)-4-((3,3-difluoropiperidin-4-yl)methoxy)-5-fluoropyrimidin-2-amine] | 50 to 200
26 | CC(C)n1cc(Nc2ncc(F)c(OCC3CCNCC3(F)F)n2)cn1 (stereo not shown) [Example 164, 4-((3,3-difluoropiperidin-4-yl)methoxy)-5-fluoro-N-(1-isopropyl-1H-pyrazol-4-yl)pyrimidin-2-amine] | < 50
27 | Fc1cnc(Nc2ccc(N3CCOCC3)cc2)nc1OCC1CCNCC1F (stereo not shown) [Example 166, 5-fluoro-4-((3-fluoropiperidin-4-yl)methoxy)-N-(4-morpholinophenyl) pyrimidin-2-amine] | < 50
28 | CC(=O)N[C@H]1CC[C@@H](COc2nc(Nc3ccc(N4CCOCC4)cc3)ncc2F)C1 [Example 178, N-((1S,3R)-3-(((5-fluoro-2-((4-morpholinophenyl)amino)pyrimidin-4-yl)oxy)methyl)cyclo-pentyl)acetamide] | 50 to 200
29 | CC(=O)N[C@H]1CC[C@@H](COc2nc(Nc3cn(C(C)(C)C#N)nc3C)ncc2F)C1 [Example 180, N-((1S,3R)-3-(((2-((1-(2-cyanopropan-2-yl)-3-methyl-1H-pyrazol-4-yl)amino)-5-fluoropyrimidin-4-yl)oxy)methyl)cyclo-pentyl)acetamide] | < 50
30 | CC(=O)N[C@H]1CC[C@H](COc2nc(Nc3ccc(N4C5CCC4COC5)cc3)ncc2F)CC1 [Example 181, N-((1R,4R)-4-(((2-((4-(3-oxa-8-azabicyclo[3.2.1]octan-8-yl)phenyl)amino)-5-fluoropyrimidin-4-yl)oxy)methyl)cyclo-hexyl)acetamide] | < 50
31 | COc1cc(C(=O)N2CCOCC2)c(F)cc1Nc1ncc(F)c(OC[C@H]2CC[C@H](NC(C)=O)CC2)n1 [Example 182, N-((1R,4R)-4-(((5-fluoro-2-((5-fluoro-2-methoxy-4-(morpholine-4-carbonyl)phenyl)amino)pyrimidin-4-yl)oxy)methyl)cyclo-hexyl)acetamide] | 50 to 200
32 | CC(=O)N[C@H]1CC[C@H](COc2nc(Nc3cnn(C)c3)ncc2F)CC1 [Example 183, N-((1R,4R)-4-(((5-fluoro-2-((1-methyl-1H-pyrazol-4-yl)amino)pyrimidin-4-yl)oxy)methyl)cyclo-hexyl)acetamide] | 50 to 200
33 | CCn1cc(Nc2ncc(F)c(OC[C@H]3CC[C@H](NC(C)=O)CC3)n2)cn1 [Example 184, N-((1R,4R)-4-(((2-((1-ethyl-1H-pyrazol-4-yl)amino)-5-fluoropyrimidin-4-yl)oxy)methyl)cyclo-hexyl)acetamide] | < 50
34 | CC(=O)N[C@H]1CC[C@H](COc2nc(Nc3cnn(C(C)C)c3)ncc2F)CC1 [Example 185, N-((1R,4R)-4-(((5-fluoro-2-((1-isopropyl-1H-pyrazol-4-yl)amino)pyrimidin-4-yl)oxy)methyl)cyclo-hexyl)acetamide] | < 50

— patent publication US11578061B2, “Inhibitors of LRRK2 kinase” (Halia Therapeutics, Inc., priority 2021, dated 2023)
